Patent EP2607478A1, “Phenanthroline treated MSC” (Universiteit Twente, priority 2011, dated 2013)

Test system: MSCs
Assay: Whole genome expression analysis (Illumina microarray) of treated MSCs
Assay type: cell-based, Human
Method: MSCs were seeded in T25 flasks at 5000 cells/cm^2 and allowed to attach overnight in proliferation medium. […] After 48 hours, RNA was isolated as described above. From 500 ng of RNA, cRNA was synthesized using the Illumina TotalPrep RNA amplification Kit (Ambion), according to the manufacturer's protocol and the quality of RNA and cRNA was verified on a Bioanalyzer 2100 (Agilent). Microarrays were performed using Illumina HT-12 v4 expression Beadchips, according to the manufacturer's protocol. Briefly, 750 ng of cRNA was hybridized on the array overnight after which the array was washed and blocked. Then, by addition of streptavidin Cy-3 a fluorescent signal was developed. Arrays were scanned on an Illumina iScan reader and raw intensity values were background corrected in GenomeStudio (Illumina). Further data processing and statistical testing were performed with R and Bioconductor statistical software (www.bioconductor.org), using package lumi. Raw intensity values were transformed using variance stabilization and a quantile normalization was performed. A linear modelling approach with empirical Bayesian methods, as implemented in Limma package (54), was applied for differential expression analysis of the resulting probe-level expression values. A gene list, containing only those genes with an absolute 1.5-fold change between different treatments, was uploaded to Ingenuity Pathway Analysis (IPA) software and used for core analysis. Pathways or networks with a p-value of 0.05 were considered statistically significant.

c1cnc2c(c1)ccc1cccnc12 [PHE, 1, 10-phenanthroline]
logFC(D142_PHE - D142_BAS) (ProbeID ILMN_1827736, no gene name printed): 2,01 | logFC(D142_PHE - D142_BAS) (ProbeID ILMN_1843198, no gene name printed): 4,02 | logFC(D142_PHE - D142_BAS) (ProbeID ILMN_1854469, no gene name printed): -2,31 | logFC(D142_PHE - D142_BAS) (ProbeID ILMN_1862909, no gene name printed): 2,60 | logFC(D142_PHE - D142_BAS) (ProbeID ILMN_1890614, no gene name printed): 3,60 | logFC(D142_PHE - D142_BAS) LDLR (ProbeID ILMN_2053415): -2,22 | logFC(D142_PHE - D142_BAS) PTGS2 (ProbeID ILMN_2054297): 2,59 | logFC(D142_PHE - D142_BAS) GAS1 (ProbeID ILMN_2062701): -2,22 | logFC(D142_PHE - D142_BAS) GOLGA8B (ProbeID ILMN_2103547): 2,29 | logFC(D142_PHE - D142_BAS) EEF1A2 (ProbeID ILMN_2108735): 4,24 | logFC(D142_PHE - D142_BAS) NPM3 (ProbeID ILMN_2110252, PHE vs BAS): -2,68 | logFC(D142_PHE - D142_BAS) CTHRC1 (ProbeID ILMN_2117508, PHE vs BAS): -3,58 | logFC(D142_PHE - D142_BAS) LRIG1 (ProbeID ILMN_2128795): 2,70 | logFC(D142_PHE - D142_BAS) CYBASC3 (ProbeID ILMN_2129505): -2,00 | logFC(D142_PHE - D142_BAS) IGFBP5 (ProbeID ILMN_2132982): 2,36 | logFC(D142_PHE - D142_BAS) POL3S (ProbeID ILMN_2133187): 2,59 | logFC(D142_PHE - D142_BAS) PLIN2 (ProbeID ILMN_2138765): 3,41 | logFC(D142_PHE - D142_BAS) HIST2H2AA3 (ProbeID ILMN_2144426): 3,65 | logFC(D142_PHE - D142_BAS) TNC (ProbeID ILMN_2145670, PHE vs BAS): -2,96 | logFC(D142_PHE - D142_BAS) GBP1 (ProbeID ILMN_2148785, PHE vs BAS): -2,77 | logFC(D142_PHE - D142_BAS) SERPINB2 (ProbeID ILMN_2150851): 2,73 | logFC(D142_PHE - D142_BAS) SERPINB2 (ProbeID ILMN_2150856): 2,92 | logFC(D142_PHE - D142_BAS) ALDH1B1 (ProbeID ILMN_2150894, PHE vs BAS): -3,56 | logFC(D142_PHE - D142_BAS) MNS1 (ProbeID ILMN_2157240): -2,02 | logFC(D142_PHE - D142_BAS) GPI (ProbeID ILMN_2173451): 2,47 | logFC(D142_PHE - D142_BAS) MT1E (ProbeID ILMN_2173611): -2,20 | logFC(D142_PHE - D142_BAS) IL8 (ProbeID ILMN_2184373): 6,28 | logFC(D142_PHE - D142_BAS) PFKFB3 (ProbeID ILMN_2186061): 5,23 | logFC(D142_PHE - D142_BAS) RRAD (ProbeID ILMN_2186137): 3,18 | logFC(D142_PHE - D142_BAS) GDF15 (ProbeID ILMN_2188862): 4,56 | logFC(D142_PHE - D142_BAS) MELK (ProbeID ILMN_2212909): -2,05 | logFC(D142_PHE - D142_BAS) PGK1 (ProbeID ILMN_2216852): 2,97 | logFC(D142_PHE - D142_BAS) PTGR1 (ProbeID ILMN_2225537): 2,90 | logFC(D142_PHE - D142_BAS) SLAMF9 (ProbeID ILMN_2227248): 2,67 | logFC(D142_PHE - D142_BAS) PCDH18 (ProbeID ILMN_2229877, PHE vs BAS): -2,41 | logFC(D142_PHE - D142_BAS) BEX1 (ProbeID ILMN_2234697, PHE vs BAS): -4,70 | logFC(D142_PHE - D142_BAS) LEPR (ProbeID ILMN_2234956, PHE vs BAS): -2,85 | logFC(D142_PHE - D142_BAS) KIAA0101 (ProbeID ILMN_2285996, PHE vs BAS): -3,27 | logFC(D142_PHE - D142_BAS) UBE2C (ProbeID ILMN_2301083): -2,20 | logFC(D142_PHE - D142_BAS) VCAM1 (ProbeID ILMN_2307903, PHE vs BAS): -5,09 | logFC(D142_PHE - D142_BAS) WFDC3 (ProbeID ILMN_2308903): 2,87 | logFC(D142_PHE - D142_BAS) MAFF (ProbeID ILMN_2322375): 3,04 | logFC(D142_PHE - D142_BAS) RORA (ProbeID ILMN_2322498): 2,13 | logFC(D142_PHE - D142_BAS) CALD1 (ProbeID ILMN_2324002): -2,11 | logFC(D142_PHE - D142_BAS) TXNRD1 (ProbeID ILMN_2324421): 2,30 | logFC(D142_PHE - D142_BAS) MSRB3 (ProbeID ILMN_2332553): -2,12 | logFC(D142_PHE - D142_BAS) PORCN (ProbeID ILMN_2337058): 3,30 | logFC(D142_PHE - D142_BAS) AK3L1 (ProbeID ILMN_2338038): 2,61 | logFC(D142_PHE - D142_BAS) METRNL (ProbeID ILMN_2342066): 2,12 | logFC(D142_PHE - D142_BAS) FMO3 (ProbeID ILMN_2344283): -2,27 | logFC(D142_PHE - D142_BAS) BIRC5 (ProbeID ILMN_2349459, PHE vs BAS): -2,71 | logFC(D142_PHE - D142_BAS) MAD1L1 (ProbeID ILMN_2358069): 2,09 | logFC(D142_PHE - D142_BAS) TPM1 (ProbeID ILMN_2360710): -2,27 | logFC(D142_PHE - D142_BAS) VLDLR (ProbeID ILMN_2361862): 3,53 | logFC(D142_PHE - D142_BAS) SLC16A3 (ProbeID ILMN_2364022): 2,29 | logFC(D142_PHE - D142_BAS) SMOX (ProbeID ILMN_2367258): 2,05 | logFC(D142_PHE - D142_BAS) CXCR7 (ProbeID ILMN_2371458): 2,54 | logFC(D142_PHE - D142_BAS) MUC1 (ProbeID ILMN_2371911): 2,27 | logFC(D142_PHE - D142_BAS) ATF3 (ProbeID ILMN_2374865): 2,39 | logFC(D142_PHE - D142_BAS) VEGFA (ProbeID ILMN_2375879): 4,30 | logFC(D142_PHE - D142_BAS) KCNK2 (ProbeID ILMN_2376953, PHE vs BAS): -3,27 | logFC(D142_PHE - D142_BAS) PTPRF (ProbeID ILMN_2380163): 2,36 | logFC(D142_PHE - D142_BAS) AKR1A1 (ProbeID ILMN_2380771): -2,14 | logFC(D142_PHE - D142_BAS) P4HA2 (ProbeID ILMN_2381697): 2,27 | logFC(D142_PHE - D142_BAS) CA12 (ProbeID ILMN_2382942): 2,61 | logFC(D142_PHE - D142_BAS) ANGPTL4 (ProbeID ILMN_2386444): 3,59 | logFC(D142_PHE - D142_BAS) EPSTI1 (ProbeID ILMN_2388547, PHE vs BAS): -2,93 | logFC(D142_PHE - D142_BAS) PSMB8 (ProbeID ILMN_2390299, PHE vs BAS): -2,40 | logFC(D142_PHE - D142_BAS) UBE2E3 (ProbeID ILMN_2390338): -2,31 | logFC(D142_PHE - D142_BAS) FBLN2 (ProbeID ILMN_2390919): -2,30 | logFC(D142_PHE - D142_BAS) TAGLN (ProbeID ILMN_2400935, PHE vs BAS): -3,44 | logFC(D142_PHE - D142_BAS) FAM13A (ProbeID ILMN_2401258): 2,84 | logFC(D142_PHE - D142_BAS) RIOK3 (ProbeID ILMN_2404135): 2,47 | logFC(D142_PHE - D142_BAS) ARNTL (ProbeID ILMN_2405305): 2,05 | logFC(D142_PHE - D142_BAS) PODXL (ProbeID ILMN_2413158): 3,57 | logFC(D142_PHE - D142_BAS) LOC100130790 (ProbeID ILMN_3181489): 3,33 | logFC(D142_PHE - D142_BAS) LOC727803 (ProbeID ILMN_3212373): -2,02 | logFC(D142_PHE - D142_BAS) LOC730415 (ProbeID ILMN_3228688): 2,25 | logFC(D142_PHE - D142_BAS) LOC390557 (ProbeID ILMN_3233930): 2,45 | logFC(D142_PHE - D142_BAS) LOC100133609 (ProbeID ILMN_3237270): 2,75 | logFC(D142_PHE - D142_BAS) BEND5 (ProbeID ILMN_3237448): 2,26 | logFC(D142_PHE - D142_BAS) C4orf47 (ProbeID ILMN_3237511): 2,24 | logFC(D142_PHE - D142_BAS) FBXL11 (ProbeID ILMN_3237966): 2,06 | logFC(D142_PHE - D142_BAS) DLGAP5 (ProbeID ILMN_3239771): -2,24 | logFC(D142_PHE - D142_BAS) HIST2H2AA4 (ProbeID ILMN_3242900): 3,75 | logFC(D142_PHE - D142_BAS) FAM180A (ProbeID ILMN_3245418): 2,34 | logFC(D142_PHE - D142_BAS) LOC730743 (ProbeID ILMN_3247132, PHE vs BAS): -2,35 | logFC(D142_PHE - D142_BAS) GAPDHL6 (ProbeID ILMN_3267451): 2,90 | logFC(D142_PHE - D142_BAS) LOC100132510 (ProbeID ILMN_3280402): 2,32 | logFC(D142_PHE - D142_BAS) LOC644237 (ProbeID ILMN_3283772): 2,73 | logFC(D142_PHE - D142_BAS) LOC729708 (ProbeID ILMN_3305475): 2,12 | logFC(D142_PHE - D142_BAS) LOC730246 (ProbeID ILMN_3305949): -2,06 | logFC(D142_PHE - D142_BAS) MIR1974 (ProbeID ILMN_3308961): 3,51
